According to PubChem BioAssay (NCI):
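Five compound concentrations were applied to cells in 96-well plates for 48 hours; endpoints were derived by simple linear interpolation of the resulting dose-response curve. GI50 marks 50% less growth. Definition used: TGI = concentration required for complete inhibition of growth.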

How the values were obtained:
Test in all cases: growth of human tumour cells (NCI), 48 h
[1] = tested on: 786-0 renal
[2] = tested on: A498 renal
[3] = tested on: A549 NSCLC
[4] = tested on: ACHN renal
[5] = tested on: CCRF-CEM leukemia
[6] = tested on: COLO 205 colon
[7] = tested on: DLD-1 colon
[8] = tested on: DMS 114 small cell lung
[9] = tested on: DMS 273 small cell lung
[10] = tested on: EKVX NSCLC
[11] = tested on: HCC-2998 colon
[12] = tested on: HCT-116 colon
[13] = tested on: HCT-15 colon
[14] = tested on: HL-60(TB) leukemia
[15] = tested on: HOP-18 NSCLC
[16] = tested on: HOP-62 NSCLC
[17] = tested on: HOP-92 NSCLC
[18] = tested on: HT29 colon
[19] = tested on: IGROV1 ovarian
[20] = tested on: K-562 leukemia
[21] = tested on: KM12 colon
[22] = tested on: KM20L2 colon
[23] = tested on: LOX IMVI melanoma
[24] = tested on: LXFL 529 NSCLC
[25] = tested on: M14 melanoma
[26] = tested on: M19-MEL melanoma
[27] = tested on: MALME-3M melanoma
[28] = tested on: MOLT-4 leukemia
[29] = tested on: NCI-H226 lung
[30] = tested on: NCI-H23 lung
[31] = tested on: NCI-H460 lung
[32] = tested on: NCI-H522 lung
[33] = tested on: OVCAR-3 ovarian
[34] = tested on: OVCAR-4 ovarian
[35] = tested on: OVCAR-5 ovarian
[36] = tested on: OVCAR-8 ovarian
[37] = tested on: RXF 393 renal
[38] = tested on: SF-268 CNS
[39] = tested on: SF-295 CNS
[40] = tested on: SF-539 CNS
[41] = tested on: SK-MEL-2 melanoma
[42] = tested on: SK-MEL-28 melanoma
[43] = tested on: SK-MEL-5 melanoma
[44] = tested on: SK-OV-3 ovarian
[45] = tested on: SN12C renal
[46] = tested on: SNB-19 CNS
[47] = tested on: SNB-75 CNS
[48] = tested on: SNB-78 CNS
[49] = tested on: SR leukemia
[50] = tested on: SW-620 colon
[51] = tested on: TK-10 renal
[52] = tested on: U251 CNS
[53] = tested on: UACC-257 melanoma
[54] = tested on: UO-31 renal
[55] = tested on: XF 498 CNS
[56] = tested on: CAKI-1 renal
[57] = tested on: RPMI-8226 leukemia
[58] = tested on: UACC-62 melanoma

COC(=O)/C=C/C1C2C3(CCC(C)C12C)OCCS3 (configuration not stated)
TGI [1]: > 100 µM
TGI [2]: > 100 µM
TGI [3]: > 100 µM
TGI [4]: > 100 µM
TGI [5]: > 100 µM
TGI [6]: > 100 µM
TGI [7]: > 100 µM
TGI [8]: > 100 µM
TGI [9]: > 100 µM
TGI [10]: > 100 µM
TGI [11]: > 100 µM
TGI [12]: > 100 µM
TGI [13]: > 100 µM
TGI [14]: > 100 µM
TGI [15]: > 100 µM
TGI [16]: > 100 µM
TGI [17]: > 100 µM
TGI [18]: > 100 µM
TGI [19]: > 100 µM
TGI [20]: > 100 µM
TGI [21]: > 100 µM
TGI [22]: > 100 µM
TGI [23]: > 100 µM
TGI [24]: > 100 µM
TGI [25]: > 100 µM
TGI [26]: > 100 µM
TGI [27]: > 100 µM
TGI [28]: > 100 µM
TGI [29]: > 100 µM
TGI [30]: > 100 µM
TGI [31]: > 100 µM
TGI [32]: > 100 µM
TGI [33]: > 100 µM
TGI [34]: > 100 µM
TGI [35]: > 100 µM
TGI [36]: > 100 µM
TGI [37]: > 100 µM
TGI [38]: > 100 µM
TGI [39]: > 100 µM
TGI [40]: > 100 µM
TGI [41]: > 100 µM
TGI [42]: > 100 µM
TGI [43]: > 100 µM
TGI [44]: > 100 µM
TGI [45]: > 100 µM
TGI [46]: > 100 µM
TGI [47]: > 100 µM
TGI [48]: > 100 µM
TGI [49]: > 100 µM
TGI [50]: > 100 µM
TGI [51]: > 100 µM
TGI [52]: > 100 µM
TGI [53]: > 100 µM
TGI [54]: > 100 µM
TGI [55]: > 100 µM

COc1cccc(/C=N/[N-]C(=O)c2ccncc2)c1[O-].[Ni+2].[OH3+]
GI50 [1]: > 100 µM
TGI [1]: > 100 µM
GI50 [2]: > 100 µM
TGI [2]: > 100 µM
GI50 [3]: > 100 µM
TGI [3]: > 100 µM
GI50 [4]: > 100 µM
TGI [4]: > 100 µM
GI50 [56]: > 100 µM
TGI [56]: > 100 µM
GI50 [5]: > 100 µM
TGI [5]: > 100 µM
GI50 [6]: > 100 µM
TGI [6]: > 100 µM
GI50 [7]: > 100 µM
TGI [7]: > 100 µM
GI50 [8]: > 100 µM
TGI [8]: > 100 µM
GI50 [9]: > 100 µM
TGI [9]: > 100 µM
GI50 [10]: > 100 µM
TGI [10]: > 100 µM
GI50 [11]: > 100 µM
TGI [11]: > 100 µM
GI50 [12]: > 100 µM
TGI [12]: > 100 µM
GI50 [13]: > 100 µM
TGI [13]: > 100 µM
GI50 [14]: > 100 µM
TGI [14]: > 100 µM
GI50 [15]: > 100 µM
TGI [15]: > 100 µM
GI50 [16]: > 100 µM
TGI [16]: > 100 µM
GI50 [17]: > 100 µM
TGI [17]: > 100 µM
GI50 [18]: > 100 µM
TGI [18]: > 100 µM
GI50 [19]: > 100 µM
TGI [19]: > 100 µM
GI50 [20]: > 100 µM
TGI [20]: > 100 µM
GI50 [21]: > 100 µM
TGI [21]: > 100 µM
GI50 [22]: > 100 µM
TGI [22]: > 100 µM
GI50 [23]: > 100 µM
TGI [23]: > 100 µM
GI50 [24]: > 100 µM
TGI [24]: > 100 µM
GI50 [25]: > 100 µM
TGI [25]: > 100 µM
GI50 [26]: > 100 µM
TGI [26]: > 100 µM
GI50 [27]: > 100 µM
TGI [27]: > 100 µM
GI50 [28]: > 100 µM
TGI [28]: > 100 µM
GI50 [29]: > 100 µM
TGI [29]: > 100 µM
GI50 [30]: > 100 µM
TGI [30]: > 100 µM
GI50 [31]: > 100 µM
TGI [31]: > 100 µM
GI50 [33]: > 100 µM
TGI [33]: > 100 µM
GI50 [34]: > 100 µM
TGI [34]: > 100 µM
GI50 [35]: > 100 µM
TGI [35]: > 100 µM
GI50 [36]: > 100 µM
TGI [36]: > 100 µM
GI50 [57]: > 100 µM
TGI [57]: > 100 µM
GI50 [38]: > 100 µM
TGI [38]: > 100 µM
GI50 [39]: > 100 µM
TGI [39]: > 100 µM
GI50 [40]: > 100 µM
TGI [40]: > 100 µM
GI50 [41]: > 100 µM
TGI [41]: > 100 µM
GI50 [42]: > 100 µM
TGI [42]: > 100 µM
GI50 [43]: > 100 µM
TGI [43]: > 100 µM
GI50 [44]: > 100 µM
TGI [44]: > 100 µM
GI50 [45]: > 100 µM
TGI [45]: > 100 µM
GI50 [46]: > 100 µM
TGI [46]: > 100 µM
GI50 [47]: > 100 µM
TGI [47]: > 100 µM
GI50 [48]: > 100 µM
TGI [48]: > 100 µM
GI50 [49]: > 100 µM
TGI [49]: > 100 µM
GI50 [50]: > 100 µM
TGI [50]: > 100 µM
GI50 [51]: > 100 µM
TGI [51]: > 100 µM
GI50 [52]: > 100 µM
TGI [52]: > 100 µM
GI50 [53]: > 100 µM
TGI [53]: > 100 µM
GI50 [58]: > 100 µM
TGI [58]: > 100 µM
GI50 [54]: > 100 µM
TGI [54]: > 100 µM
GI50 [55]: > 100 µM
TGI [55]: > 100 µM
